What was measured:
[1] = test system: α1-acid glycoprotein (AGP); test: AGP-HPAC assay (plasma protein binding); format: in vitro ADME; conditions: Chiralpak-AGP, pH 7.4, 25 °C; spread is RSD in %
From the text: (§1) The gradient retention times obtained by HSA-HPAC and AGP-HPAC assays were standardized using a calibration set of compounds with known percentage of plasma protein binding data and procedure described in our previously published study. […] This verification assured that the protein affinity indices obtained by HPAC assays depict not only unspecific generally lipophilicity-driven interactions, but also highly specific recognition forces responsible of enantioselectivity.
(§2) Stock solutions of analytes and calibration standards were prepared by dissolving 10 mg of each solute in 10 mL of methanol and kept at 4 °C. Working solutions were freshly prepared at the beginning of each day by dilution of the stock solutions to 100 μg/mL with methanol for TLC measurements or mobile phase for HPLC measurements. Before use, the samples were sonicated (Elmasonic XtraTT, Elma Schmidbauer) for 10 min at 25 °C and all working solutions were filtered through 0.2 µm polyethersulfone filters (Obrnuta faza). To protect analytes from photodegradation, the amber glass HPLC vials were used.
(§3) The binding of biologically active compounds to the plasma proteins was investigated using affinity chromatographic columns by ChromTech (Cedex, France) containing immobilized human serum albumin (HSA) (Chiralpak-HSA, length 50 mm, i.d. 4.6 mm, particle size 5 µm) and α1-acid glycoprotein (AGP) (Chiralpak-AGP, length 50 mm, i.d. 4.6 mm, particle size 5 µm) and Agilent HPLC 1100 instrument. The 20 mM potassium phosphate buffer with the pH adjusted to 7.4 and iso-propanol were used as mobile phase components A and B. Retention data were collected at 25.0 ± 0.1 °C using gradient program as follows: 0 min/0% B, 6 min/30% B, 15 min/30% B and 20 min/0% B. Injection volume was set at 10 µL and the measurements were carried out at 25.0 ± 0.1 °C with flow rate of 1.5 mL/min. The absorbance of the analytes during a chromatographic run was collected in the spectral range 200–400 nm, and the detection wavelength for each analyte was the one providing the maximum peak height.

[2] = target: T1, human serum albumin (HSA) (Homo sapiens, UniProt P02768); test: HSA-HPAC assay (plasma protein binding); format: in vitro ADME; conditions: Chiralpak-HSA, pH 7.4, 25 °C; spread is RSD in %
T1 construct: purchased ChromTech (Cedex, France) Chiralpak-HSA
T1 sequence (P02768 25-609): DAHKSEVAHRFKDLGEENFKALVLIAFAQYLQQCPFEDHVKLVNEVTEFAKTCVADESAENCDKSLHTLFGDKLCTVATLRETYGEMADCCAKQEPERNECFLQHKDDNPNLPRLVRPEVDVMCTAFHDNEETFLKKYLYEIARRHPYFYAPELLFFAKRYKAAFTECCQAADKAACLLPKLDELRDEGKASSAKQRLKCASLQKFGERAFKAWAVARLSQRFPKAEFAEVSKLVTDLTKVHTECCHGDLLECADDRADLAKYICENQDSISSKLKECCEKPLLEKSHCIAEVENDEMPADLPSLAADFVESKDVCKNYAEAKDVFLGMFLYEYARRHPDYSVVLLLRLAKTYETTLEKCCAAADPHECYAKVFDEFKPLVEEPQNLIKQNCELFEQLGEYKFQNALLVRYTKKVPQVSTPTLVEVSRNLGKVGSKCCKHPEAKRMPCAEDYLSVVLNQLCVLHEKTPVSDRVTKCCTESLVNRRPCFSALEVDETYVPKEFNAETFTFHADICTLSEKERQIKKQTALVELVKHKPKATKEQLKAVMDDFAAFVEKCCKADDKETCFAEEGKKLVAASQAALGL
From the text: as §1, §2, §3

[3] = IAM-HPLC assay (lipophilicity, affinity to phospholipids); format: physicochemical
Description: IAM columns provide potential to simulate membrane permeability since the amphiphilic character of phospholipid functional groups plays an important role in IAM retention especially when charged molecules are analysed.
as §2
C18-HPLC assay was carried out at Agilent HPLC 1100 and Zorbax SB C18 chromatographic column (length 250 mm.6 mm, particle size 5 µm) by Agilent Technologies, while IAM-HPLC assay was conducted using IAM P.C.DD2 chromatographic column (length 50 mm, i.d. 3.0 mm, particle size […]) by Regis Technologies (Morton Grove, IL, USA). Retention data were collected at 25.0 ± 0.1 °C using isocratic method working with mobile phases, mixing the respective amounts of PBS (10 mM, pH 7.4) and methanol from 35% to 80% of organic solvent in 5% increment. Each mobile phase was shaken vigorously and filtrated through membrane filter, no. 66, diameter 47 mm, pore size 0.45 µm by Supelco and degassed by sonication 5 min before use. The injection volume was set at 10 µL, and the measurements were carried out at flow rate 1.0 mL/min. Natrium nitrate solution (0.1 mg/mL in mobile phase) was used as the marker of dead-time. The absorbance of the analytes during a chromatographic run was collected in the spectral range of 200–400 nm, and the detection wavelength for each analyte was the one providing the maximum peak height.

[4] = C18-TLC assay (hydrophobicity); format: physicochemical; conditions: for RM0 (TLC hydrophobicity index, intercept of linear equation): RP-18 TLC, PBS pH 7.4/methanol, extrapolated to zero organic modifier; for spot migration in C18-TLC: regardless the percentage of the organic modifier in the mobile phase
From the text: In TLC measurements RF value depends on the chemical structure of analyte and its interaction with stationary and mobile phase. […] As it was expected, with increase in the percentage of organic modifier in the mobile phase the increase in RF values can be seen with accompanied decrease in RM values expressed as RM = log(1/RF - 1). Measured RF values were in the range from 0.1 to 0.7 obtained in a wide range of mobile phase organic modifier concentrations. […] Increasing concentration of the organic modifier in the mobile phase caused a slower decrease in the RM values for less hydrophobic analytes than for more hydrophobic ones. […] Increase in the hydrophobicity within curcuminoids and andrographolides is related to increase in lipophilicity determined by shake-flask method (Table 3). Stock solutions of analytes and calibration standards were prepared by dissolving 10 mg of each solute in 10 mL of methanol and kept at 4 °C. Working solutions were freshly prepared at the beginning of each day by dilution of the stock solutions to 100 μg/mL with methanol for TLC measurements or mobile phase for HPLC measurements. Before use, the samples were sonicated (Elmasonic […]) for 10 min at 25 °C and all working solutions were filtered through 0.2 μm polyethersulfone filters (Obrnuta faza). To protect analytes from photodegradation, the amber glass HPLC vials were used. Analyses were carried out using a commercially available 10 cm x 20 cm RP-18 TLC plates with fluorescent indicator (Merck KGaA). 5 μL of each working solution ([…]) was applied to the plates as 5 mm bends, 10 mm from the lower edge and 15 mm from sides of plates. The mobile phases were prepared by mixing the respective amounts of PBS (20 mM, pH 7.4) and methanol from 50% to 80% of organic solvent in 5% increment. The vertical flat-bottom chamber ([…], Switzerland) with a stainless-steel lid was saturated with mobile phase for 30 min. The plates were developed to a distance of 9 cm at room temperature, dried in the open air for 5 min and visualized under λ = 254 nm UV light (UV Cabinet with Dual Wavelength UV lamp by Camag).

[5] = Miniaturized shake-flask method (n-octanol/PBS pH 7.4) with HPLC analysis; format: physicochemical; conditions: n-octanol/PBS 20 mM pH 7.4, 25 °C; spread is RSD in %; read-out: log D7.4 ± RSD (%) (n = 3)
Description: Stock solution of biologically active ingredients of botanicals used in IBD treatment were prepared using dimethylsulfoxide in concentration of 2 mg/mL. Working solutions were prepared daily by dilution of the stock solutions with PBS (20 mM, pH 7.4) pre-saturated with n-octanol. Before the injection into the HPLC system all solutions were sonicated for 15 min at room temperature in Elmasonic XtraTT (Elma Schmidbauer, Singen, Germany) and filtered through 0.2 μm polyethersulfone filters (Obrnuta faza, Pazin, Croatia).
The pre-saturated solutions of n-octanol and PBS (20 mM, pH 7.4) were used for determination of logarithm of distribution coefficient (log D7.4). The n-octanol and aqueous phase (mixture 1:1, v/v) were mutually saturated for 24 h in an orbital shaker-incubator ES-20/60 (Biosan, Riga, Latvia) at 100 oscillations per min at 25.0 ± 0.1 °C. The prepared mixture was left resting for at least 12 h in the thermostat at 25.0 ± 0.1 °C to ensure complete separation of the two phases. Until analysis, separated saturated solutions were kept in refrigerator at 4 °C.
Shake-flask procedure was conducted in amber 2 mL HPLC vials. 300 μL of the working solution was added to 1500 μL of n-octanol pre-saturated with PBS. To prevent material loss due to volatilisation, the two-phase system nearly filled the entire volume of the test vessels. All n-octanol–buffer mixtures were first vortexed for 1 min and then shaken for 1 h (150 oscillations per min) at room temperature (25.0 ± 0.1 °C) to reach equilibrium and phase distribution. Afterward, the samples were centrifuged using a Z 326 K tabletop centrifuge (HERMLE Labortechnik, Wehingen, Germany) for 30 min at 4000× g and 25 °C to ensure that possible emulsions were removed.
After equilibration and phase separation, the aqueous phase of all samples was analysed on an Agilent HPLC 1100 (Agilent Technologies, Waldbronn, Germany) with diode array detection. Analysis was conducted with a Zorbax SB C18 column (length 150 mm, i.d. 4.6 mm, particle size 5 μm) by Agilent Technologies. 10 min chromatographic runs were performed at 25.0 ± 0.1 °C in isocratic mode using a methanol/water mixture (60/40, v/v) with addition of 0.1% of formic acid as mobile phase modifier at a flow rate of 1.0 mL/min. The mobile phase was filtered through a membrane filter, no. 66, diameter 47 mm, pore size 0.45 µm (Supelco, Bellefonte, PA, USA). The vials were placed in the rack on the autosampler at 25 °C. The injection volume was 10 µL, with a needle offset of 0.5 mm. To avoid any carryover of the analyte-containing n-octanol phase, the outside of the syringe was subsequently washed in methanol before injection. The absorbance of the analytes during a chromatographic run was collected in the spectral range 200–400 nm, and the detection wavelength for each analyte was the one providing the maximum peak height.

[6] = IAM P.C.DD2 column, PBS pH 7.4/methanol, extrapolated to zero organic modifier

Compound	AGP Binding ± RSD (%) (n = 3) [1]	HSA Binding ± RSD (%) (n = 3) [2]	logk0 IAM (HPLC lipophilicity index, intercept of linear equation) ([3]; pH 7.4)	RM0 (TLC hydrophobicity index, intercept of linear equation) [4]	Δ RM0 (increase compared to 11-keto-β-boswellic acid) ([4]; compared to 11-keto-β-boswellic acid)	logk0 IAM (HPLC lipophilicity index, intercept of linear equation) [3, 6]	logD at 1 h [5]	spot migration in C18-TLC [4]
CC(=O)O[C@@H]1CC[C@@]2(C)[C@@H](CC[C@]3(C)[C@@H]2C(=O)C=C2[C@@H]4[C@@H](C)[C@H](C)CC[C@]4(C)CC[C@]23C)[C@@]1(C)C(=O)O [3-Acetyl-11-keto-β-boswellic Acid, 3-acetyl-11-keto-β-boswellic acid]	83.10 ± 0.37%	99.83 ± 0.47%	y = −0.0703 x + 5.1157	y = −0.0722 x + 6.9059	1.53 units	–	–	–
CC1CCC2(C)CCC3(C)C(=CC(=O)C4C5(C)CCC(O)C(C)(C(=O)O)C5CCC43C)C2C1C (stereo not drawn) [11-Keto-β-boswellic Acid, 11-keto-β-boswellic acid]	79.01 ± 0.20%	98.09 ± 0.02%	–	y = −0.0564 x + 5.3756	–	y = −0.0570 x + 4.9194	–	–
COc1cc(/C=C/C(=O)CC(=O)/C=C/c2ccc(O)c(OC)c2)ccc1O [Curcumin, curcumin]	83.07 ± 1.10%	97.52 ± 0.20%	–	–	–	–	1.94	–

Next, values leading:

AGP Binding ± RSD (%) (n = 3) [1]	HSA Binding ± RSD (%) (n = 3) [2]	logk0 IAM (HPLC lipophilicity index, intercept of linear equation) ([3]; pH 7.4)	RM0 (TLC hydrophobicity index, intercept of linear equation) [4]	Δ RM0 (increase compared to 11-keto-β-boswellic acid) ([4]; compared to 11-keto-β-boswellic acid)	logk0 IAM (HPLC lipophilicity index, intercept of linear equation) [3, 6]	logD at 1 h [5]	spot migration in C18-TLC [4]	Compound
89.22 ± 0.30%	98.94 ± 0.35%	–	–	–	y = −0.0788 x + 6.3109	–	no spot migration was observed	CC1(C)CCC2(C)CCC3(C)C(=CCC4C5(C)CCC(O)C(C)(C(=O)O)C5CCC43C)C2C1 (stereo not drawn) [α-Boswellic Acid, α-boswellic acid]
89.15 ± 2.04%	99.79 ± 0.30%	y = −0.0816 x + 6.5157	–	–	–	–	no spot migration was observed	C[C@H]1[C@H](C)CC[C@]2(C)CC[C@]3(C)C(=CC[C@@H]4[C@@]5(C)CC[C@@H](O)[C@](C)(C(=O)O)[C@@H]5CC[C@]43C)[C@H]12 [β-Boswellic Acid, β-boswellic acid]

Reference: article PMC9413514, “Accessing Lipophilicity and Biomimetic Chromatography Profile of Biologically Active Ingredients of Botanicals Used in the Treatment of Inflammatory Bowel Disease” (Pharmaceuticals, 2022)
